# Test results: patent publication US9375000B2, “Pesticidal arylpyrrolidines” (Bayer Intellectual Property GmbH, priority 2011, dated 2016)
# Assays:
# Type in all cases: in vivo
# [1] = test system: Two-Spotted Spider Mite (Tetranychus urticae); assay: Two-spotted spider mite (Tetranychus urticae) spray test on kidney bean; details: after 7 days
# Summary of the method: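 Kidney bean plants at the two-leaf stage carried 50-100 adult mites and were sprayed one day later with compound in DMF/polyoxyethylene alkyl phenyl ether diluted in water. Ammonium salt and penetration enhancer at 1000 ppm were added if needed. Acaricidal activity (% mites killed) was scored after 7 days in a greenhouse.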
# [2] = test system: Cucurbit Leaf Beetle (Aulacophora femoralis); assay: Cucurbit leaf beetle (Aulacophora femoralis) cucumber leaf dip test; details: after 7 days
# Summary of the method: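 Cucumber leaves dipped in compound formulated with DMF and polyoxyethylene alkyl phenyl ether, diluted in water, with ammonium salt or ammonium salt plus penetration enhancer at 1000 ppm added if necessary; dried leaves placed on sterilized soil with five second-instar larvae. Kept at 25° C; larval mortality counted after 7 days.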
# [3] = test system: Larvae of Spodoptera litura; assay: Larvae of Spodoptera litura, method using artificial feeds; details: artificial feed, after 7 days
# Summary of the method: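 Compound formulated in dimethylformamide with polyoxyethylene alkyl phenyl ether emulsifier, water-diluted and poured onto artificial diet. Five 3rd-instar Spodoptera litura larvae per cup, held at 25° C and 50-60% humidity. Mortality after 7 days expressed as pesticidal ratio.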
# [4] = active compound concentration 20 ppm
# [5] = active compound concentration 4 ppm
# [6] = active compound concentration 100 ppm
SMILES,"acaricidal activity [1, 4] [%]","insecticidal activity [2, 4] [%]","insecticidal activity (pesticidal ratio) [3, 4] [%]",also measured
CCC(=O)NCc1ccc(N2CCC(c3cc(F)c(F)c(F)c3)(C(F)(F)F)C2O)cc1C(F)(F)F (centres unmarked) [A1-261],100,100,100,"insecticidal activity (pesticidal ratio) [3, 5]: 100%"
O=C(NCc1ccc(N2CCC(c3cc(F)c(F)c(F)c3)(C(F)(F)F)C2O)cc1C(F)(F)F)C1CC1 (centres unmarked) [A1-264],100,100,,"insecticidal activity [2, 5]: 100%; insecticidal activity (pesticidal ratio) [3, 5]: 80%"
CCC(=O)NCc1ccc(N2CCC(c3cc(Cl)c(F)c(Cl)c3)(C(F)(F)F)C2O)cc1C(F)(F)F (centres unmarked) [A1-272],100,100,100,
O=C(NCc1ccc(N2CCC(c3cc(Cl)c(F)c(Cl)c3)(C(F)(F)F)C2O)cc1C(F)(F)F)C1CC1 (centres unmarked) [A1-275],100,100,100,
"CCC(=O)NCc1ccc(N2CCC(c3cc(Cl)c(F)c(Cl)c3F)(C(F)(F)F)C2O)cc1C(F)(F)F (centres unmarked) [A1-283, N-{4-[3-(3,5-dichloro-2,4-difluorophenyl)-2-hydroxy-3-(trifluoromethyl)pyrrolidin-1-yl]-2-(trifluoromethyl)benzyl}propanamide]",,,,"pest or weed control at 20 ppm ([1]; Tetranychus urticae, 168 h, active compound concentration 20 ppm, read-out: acaricidal activity): 100%; pest or weed control at 20 ppm ([2]; Aulacophora, foliar, 168 h, active compound concentration 20 ppm, read-out: insecticidal activity): 100%; pest or weed control at 20 ppm ([3]; Spodoptera litura, 168 h, active compound concentration 20 ppm, read-out: insecticidal activity (pesticidal ratio)): 100%"
O=C(NCc1ccc(N2CCC(c3cc(Cl)c(F)c(Cl)c3F)(C(F)(F)F)C2O)cc1C(F)(F)F)C1CC1 (centres unmarked) [A1-286],100,100,100,
CCC(=O)NCc1ccc(N2CCC(c3cc(Cl)cc(C(F)(F)F)c3)(C(F)(F)F)C2O)cc1C(F)(F)F (centres unmarked) [A1-338],100,100,100,
O=C(NCc1ccc(N2CCC(c3cc(Cl)cc(C(F)(F)F)c3)(C(F)(F)F)C2O)cc1C(F)(F)F)C1CC1 (centres unmarked) [A1-341],100,100,100,
CS(=O)(=O)CC(=O)NCc1ccc(N2CCC(c3cc(Cl)cc(C(F)(F)F)c3)(C(F)(F)F)C2O)cc1C(F)(F)F (centres unmarked) [A1-347],100,100,100,
O=C(NCc1ccc(N2CCC(c3cc(Cl)cc(Cl)c3)(C(F)(F)F)C2O)cc1C(F)(F)F)C1CCC1 (centres unmarked) [A1-361],100,100,100,
CC(=O)NCc1ccc(N2CCC(c3cc(Cl)cc(Cl)c3F)(C(F)(F)F)C2O)cc1C(F)(F)F (centres unmarked) [A1-405],,,,"acaricidal activity [1, 5]: 100%; insecticidal activity [2, 5]: 100%; insecticidal activity (pesticidal ratio) [3, 5]: 100%"
CCC(=O)NCc1ccc(N2CCC(c3cc(Cl)cc(Cl)c3F)(C(F)(F)F)C2O)cc1C(F)(F)F (centres unmarked) [A1-406],,,,"acaricidal activity [1, 5]: 100%; insecticidal activity [2, 5]: 100%; insecticidal activity (pesticidal ratio) [3, 5]: 100%"
CC(=O)NCc1ccc(N2CCC(c3cc(Cl)c(F)c(Cl)c3F)(C(F)(F)F)C2O)cc1Br (centres unmarked) [A1-429],100,,,"insecticidal activity [2, 5]: 100%; insecticidal activity (pesticidal ratio) [3, 5]: 100%"
CCC(=O)NCc1ccc(N2CCC(c3cc(Cl)c(F)c(Cl)c3F)(C(F)(F)F)C2O)cc1Br (centres unmarked) [A1-430],100,,,"insecticidal activity [2, 5]: 100%; insecticidal activity (pesticidal ratio) [3, 5]: 100%"
CCC(=O)NCc1cc(F)c(N2CCC(c3cc(Cl)c(Cl)c(Cl)c3)(C(F)(F)F)C2O)cc1F (centres unmarked) [A1-454],100,100,100,
N#CCC(=O)NCc1ccc(N2CCC(c3cc(C(F)(F)F)cc(C(F)(F)F)c3)(C(F)(F)F)C2O)cc1C(F)(F)F (centres unmarked) [A1-528],,,,"acaricidal activity [1, 5]: 98%; insecticidal activity [2, 5]: 100%; insecticidal activity (pesticidal ratio) [3, 5]: 100%"

SMILES,"acaricidal activity [1, 4] [%]","insecticidal activity [2, 4] [%]","insecticidal activity (pesticidal ratio) [3, 4] [%]",also measured
CC(C)(C)OC(=O)NCc1ccc(N2CCC(c3cc(Cl)c(Cl)c(Cl)c3)(C(F)(F)F)C2O)cc1 (centres unmarked) [A1-575],,,,"acaricidal activity [1, 6]: 98%; insecticidal activity [2, 6]: 100%; insecticidal activity (pesticidal ratio) [3, 6]: 80%"
CC(=O)NCc1ccc(N2CCC(c3cc(Cl)cc(Cl)c3)(C(F)(F)F)C2O)nc1C(F)(F)F (centres unmarked) [A3-1],100,100,100,
O=C(NCc1ccc(N2CCC(c3cc(Cl)cc(Cl)c3)(C(F)(F)F)C2O)nc1C(F)(F)F)C1CC1 (centres unmarked) [A3-5],100,100,100,
O=C(CC(F)(F)F)NCc1ccc(N2CCC(c3cc(Cl)cc(Cl)c3)(C(F)(F)F)C2O)nc1C(F)(F)F (centres unmarked) [A3-7],100,100,100,
CC(=O)NCc1ccc(N2CCC(c3cc(Cl)c(Cl)c(Cl)c3)(C(F)(F)F)C2O)nc1C(F)(F)F (centres unmarked) [A3-12],100,100,100,
COCCC(=O)NCc1ccc(N2CCC(c3cc(Cl)c(Cl)c(Cl)c3)(C(F)(F)F)C2O)nc1C(F)(F)F (centres unmarked) [A3-19],100,100,100,"acaricidal activity [1, 5]: 100%; insecticidal activity [2, 5]: 100%; insecticidal activity (pesticidal ratio) [3, 5]: 100%"
CS(=O)(=O)CC(=O)NCc1ccc(N2CCC(c3cc(Cl)c(Cl)c(Cl)c3)(C(F)(F)F)C2O)nc1C(F)(F)F (centres unmarked) [A3-22],100,100,100,
CC(=O)NCc1ccc(N2CCC(c3cc(C(F)(F)F)cc(C(F)(F)F)c3)(C(F)(F)F)C2O)nc1C(F)(F)F (centres unmarked) [A3-23],100,100,100,
CCC(=O)NCc1ccc(N2CCC(c3cc(C(F)(F)F)cc(C(F)(F)F)c3)(C(F)(F)F)C2O)nc1C(F)(F)F (centres unmarked) [A3-24],100,100,100,
O=C(CC1CC1)NCc1ccc(N2CCC(c3cc(C(F)(F)F)cc(C(F)(F)F)c3)(C(F)(F)F)C2O)nc1C(F)(F)F (centres unmarked) [A3-28],100,100,100,
O=C(CC(F)(F)F)NCc1ccc(N2CCC(c3cc(C(F)(F)F)cc(C(F)(F)F)c3)(C(F)(F)F)C2O)nc1C(F)(F)F (centres unmarked) [A3-29],100,100,100,
CS(=O)(=O)CC(=O)NCc1ccc(N2CCC(c3cc(C(F)(F)F)cc(C(F)(F)F)c3)(C(F)(F)F)C2O)nc1C(F)(F)F (centres unmarked) [A3-33],100,100,100,
Cc1nc(N2CCC(c3cc(Cl)c(Cl)c(Cl)c3)(C(F)(F)F)C2O)ccc1CNC(=O)C1CC1 (centres unmarked) [A3-82],100,100,100,
Cc1nc(N2CCC(c3cc(Cl)c(Cl)c(Cl)c3)(C(F)(F)F)C2O)ccc1CNC(=O)CC(F)(F)F (centres unmarked) [A3-84],100,100,100,
O=C(NCc1ccc(N2CCC(c3cc(Cl)c(Cl)c(Cl)c3)(C(F)(F)F)C2O)nc1Br)C1CC1 (centres unmarked) [A3-115],100,100,100,
O=C(CC(F)(F)F)NCc1ccc(N2CCC(c3cc(Cl)c(Cl)c(Cl)c3)(C(F)(F)F)C2O)nc1Br (centres unmarked) [A3-117],100,100,100,
